What was measured:
[1] = Genotoxicity in chinese hamster CHO cells without metabolic activation system at 59 uM by IVMN assay; assay type: toxicity, cell-based, Cricetulus griseus
[2] = Solubility of compound at pH 2 measured after 24 hrs; assay type: physicochemical; conditions: buffer
Rattus norvegicus = experiment: Analgesic activity in STZ induced in diabetic peripheral neuropathic mechanical allodynia in Sprague-Dawley rat assessed as reduction in pain response at 10 mg/kg, po measured up to 24 hrs by Hargreaves test relative to control; assay type: functional; set-up: scale not given: the % may be the effect or the level left
[3] = molecular target: T1, Homeodomain-interacting protein kinase 4 (Homo sapiens, UniProt Q8NE63); experiment: Inhibition of HIPK4 (unknown origin)
T1 sequence (Q8NE63 whole entry): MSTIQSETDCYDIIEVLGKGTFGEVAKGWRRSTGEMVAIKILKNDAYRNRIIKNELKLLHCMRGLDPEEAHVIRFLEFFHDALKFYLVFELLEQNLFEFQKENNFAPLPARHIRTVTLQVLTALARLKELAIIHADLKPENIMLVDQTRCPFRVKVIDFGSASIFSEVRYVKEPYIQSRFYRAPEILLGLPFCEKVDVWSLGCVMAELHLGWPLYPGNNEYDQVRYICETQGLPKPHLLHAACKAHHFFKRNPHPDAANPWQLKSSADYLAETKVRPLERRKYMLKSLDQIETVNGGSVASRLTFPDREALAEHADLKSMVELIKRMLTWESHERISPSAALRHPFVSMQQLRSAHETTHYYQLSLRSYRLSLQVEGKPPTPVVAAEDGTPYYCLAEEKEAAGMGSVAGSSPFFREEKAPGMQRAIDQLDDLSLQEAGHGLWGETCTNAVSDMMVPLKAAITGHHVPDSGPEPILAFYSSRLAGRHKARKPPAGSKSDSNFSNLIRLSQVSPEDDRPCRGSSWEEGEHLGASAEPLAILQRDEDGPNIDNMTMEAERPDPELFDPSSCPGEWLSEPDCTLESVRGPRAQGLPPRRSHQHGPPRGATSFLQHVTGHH

[4] = Drug concentration in rat spinal cord at 3 mg/kg, po measured after 4 hrs; assay type: ADME, organism-based; conditions: read-out: Ct

For `COC(=O)Nc1cc(-c2ccc(OC[C@@](C)(N)CC(C)C)c(C)n2)ccn1`, the Activity [1] was “Non-Toxic”, the solubility at 24 h [2] was > 1000 µg/mL and the Activity (Rattus norvegicus) was 80%.

Work on `COC(=O)Nc1cc(-c2cnc(OC[C@@](C)(N)CC(C)C)c(C)c2)ccn1` yielded an IC50 [3] of 1.8 µM.

With `CC(C)C[C@](C)(N)COc1cnc(-c2ccnc(C(F)F)c2)cc1C(F)F` the concentration at 4 h [4] was 825 nM.

Source: ChEMBL document CHEMBL5154787 (J Med Chem, 2022)
